Consider 28 molecules from paper PMC5651845, “A New Generation of Arachidonic Acid Analogues as Potential Neurological Agent Targeting Cytosolic Phospholipase A2” (Scientific Reports, 2017).

One data set concerns the target T1, recombinant cPLA2 (Homo sapiens, UniProt P47712).
T1 construct: purchased US Biological P4074-03R
T1 sequence (P47712 1-749): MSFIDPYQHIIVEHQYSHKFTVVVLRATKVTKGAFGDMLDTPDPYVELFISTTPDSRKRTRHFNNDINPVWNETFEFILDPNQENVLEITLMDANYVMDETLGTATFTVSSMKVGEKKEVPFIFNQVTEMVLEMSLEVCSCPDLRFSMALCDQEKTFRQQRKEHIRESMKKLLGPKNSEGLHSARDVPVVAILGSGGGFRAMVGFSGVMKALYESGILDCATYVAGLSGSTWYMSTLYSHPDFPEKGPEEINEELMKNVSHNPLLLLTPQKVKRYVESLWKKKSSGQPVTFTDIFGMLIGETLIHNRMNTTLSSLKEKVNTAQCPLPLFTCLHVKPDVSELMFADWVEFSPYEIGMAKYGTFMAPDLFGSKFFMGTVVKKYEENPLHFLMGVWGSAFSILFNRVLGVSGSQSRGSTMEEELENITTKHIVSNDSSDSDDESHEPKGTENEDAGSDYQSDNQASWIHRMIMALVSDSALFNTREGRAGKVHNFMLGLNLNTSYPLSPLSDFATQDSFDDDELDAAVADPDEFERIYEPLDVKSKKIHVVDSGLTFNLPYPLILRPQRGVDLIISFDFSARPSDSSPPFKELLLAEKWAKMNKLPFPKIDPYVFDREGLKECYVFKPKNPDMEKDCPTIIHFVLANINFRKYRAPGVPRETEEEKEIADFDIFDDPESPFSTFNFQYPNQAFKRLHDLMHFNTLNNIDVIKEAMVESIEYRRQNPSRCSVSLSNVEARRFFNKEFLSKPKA
Kind of data set: EnzChek phospholipase A2 fluorogenic assay (% activity) at 10 μM. The following applies: 10 μM compound; for remaining activity at 10 µM: 1 h, room temperature. The data set is classed as biochemical. The method, then:
The compounds were evaluated with a fluorogenic PLA2 assay kit (EnzChek® Phospholipase A2 Assay Kit, Catalog No: E10217) at a standard 10 μM concentration. Potential inhibitors were determined by their ability to lower cPLA2 activity to a greater extent than 1a.
The assay was conducted according to the manufacturer’s instruction (E10217, Molecular Probes) with slight modification. Briefly, substrate solution was separately prepared by mixing 5 μL of DOPG, 5 μL of DOPC and 5 μL of substrate respectively in 1.5 mL of 1X phospholipase A2 reaction buffer. The mixture was vortexed vigorously for 3 min before allowing to stand at room temperature for 1 h. 48 μL of 1X phospholipase A2 reaction buffer were added into each well of a 96-wells plate. This was followed by addition of 1 μL of recombinant cPLA2 (P4074-03R, US Biological) and 1 μL of 1 mM of the respective compound dissolved in DMSO. The final concentration of the test compound achieved is 10 μM. The reaction was initiated by adding 50 μL of the substrate solution and incubating at room temperature for 1 h. Fluorescence was measured using a Varioskan plate reader (Thermo Scientific, MA, USA) by exciting at 485 nm, while fluorescence emission was detected at 515 nm. Positive control was performed when 1 μL of test compound was replaced by vehicle DMSO. % activity was expressed as the mean value of duplicate wells from three experiments. % activity was calculated by the following formula1 %activity=fluorescenceoftestedwell−background/fluorescenceofpostivecontrol−background

Data set [1] can be described thus: PAMPA with porcine brain lipids (BBB permeation). The following applies: for order of Pe values of reference compounds: similar conditions. The method, then: Thus to explore whether 2i is able to penetrate into the brain, we used PAMPA with porcine brain lipids as the lipid barrier. […] A minimum Pe of […] × 10^−6 cm/s has been cited as the threshold for permeability across the blood brain barrier.
The Parallel Artificial Membrane Permeability Assay (PAMPA) was used to determine the effective permeability (Pe) of 2i. The method reported by Di et al.[53] was followed with modifications. Determinations were carried out on MultiScreen-IP PAMPA assay (donor) plates (MAIPNTR10) and MultiScreen Receiver Plates (MATRNPS50) from Millipore Corporation (USA) with porcine polar brain lipids (Avanti Polar Lipids Inc, Alabaster, AL) as the lipid barrier.
An aliquot (5 µL) of 2% porcine brain lipids in dodecane (ReagentPlus®, Sigma Aldrich, USA) was dispensed into the donor well. A stock solution (5 mM) of 2i prepared in DMSO was diluted with 1x phosphate buffer (PBS, pH 7.4) to give a 50 µM solution. An aliquot (300 µL) of the solution was dispensed into the donor well and an equal volume of buffer (1xPBS with 1% DMSO) was added to the corresponding acceptor well. The donor and acceptor plates were assembled, the unit was placed in a humidified box and gently agitated on a mini shaker at room temperature (25 °C) for 16 h. After this time, aliquots (200 µL) were withdrawn from the donor and acceptor wells, diluted separately to 1 mL with PBS, and quantified at λmax of 290 nm on a Shimadzu UV-1800 Spectrophotometer.
300 µL aliquots of stock solutions (500 µM, 1xPBS, 0.1% DMSO) were dispensed to donor wells as described earlier. Quantification was by UV at λmax of 272 nm (caffeine), 284 nm (carbamazepine), 330 nm (quinidine), 280 nm (dopamine) and 288 nm (propanolol). […] Pe was obtained from (3):3 Pe=−2.303×{VAVD/[(VA+VD)×A×t]}×log{1−[(VA+VD)/(VD.S)]×CA(t)/CD(0)} where VA and VD are the volumes of acceptor (cm^3) and donor (cm^3) wells respectively, A is the area of the surface area of the membrane (0.24 cm^2), t is the permeation time (s). The Pe of each compound was obtained from at least 3 separate experiments using 2 different stock solutions. For each independent determination, triplicates (3 wells) were run for each compound.
(The PAMPA barrier holds no transporters, so it reflects passive diffusion.)

With `CCC/C=C\C/C=C\C/C=C\C/C=C\CCCC(=O)C(F)(F)F` [1b], on recombinant cPLA2, the inhibition at 10 µM was found to be 63% and the remaining activity at 10 µM amounted to 37 ± 3.9%. For `CCCCCCCC/C=C\C/C=C\C/C=C\C/C=C\CCCC(=O)C(F)(F)F` [1c], on recombinant cPLA2, the inhibition at 10 µM came out at 55% and the remaining activity at 10 µM was found to be 45 ± 3.5%.

As for `O=C(CCC/C=C\C/C=C\C/C=C\C/C=C\c1ccccc1)C(F)(F)F` [1d], at recombinant cPLA2, the inhibition at 10 µM stood at 68.2% and the remaining activity at 10 µM stood at 31.8 ± 2%. The matching figures for `CCCCCC/C=C\C/C=C\C/C=C\C/C=C\CCC(=O)C(F)(F)F` [1e]: 59.5% and 40.5 ± 3.6%. In the case of `CCCCC/C=C\C/C=C\C/C=C\C/C=C\CCCC(N)=O` [1m, (5Z,8Z,11Z,14Z)-icosa-5,8,11,14-tetraenamide], on recombinant cPLA2, the inhibition at 10 µM worked out at 39.3% and the remaining activity at 10 µM is 60.7 ± 1.9%. With `CCCCC/C=C\C/C=C\C/C=C\C/C=C\CCCC(=O)C(F)(F)Cl` [1n], on recombinant cPLA2, the inhibition at 10 µM came out at 50.8% and the remaining activity at 10 µM worked out at 49.2 ± 4.5%. As to `CCCCC/C=C\C/C=C\C/C=C\C/C=C\CCCC(=O)C(F)F` [1o], on recombinant cPLA2, the inhibition at 10 µM was 59.8% and the remaining activity at 10 µM amounted to 40.2 ± 0.5%. The matching figures for `CCCCC/C=C\C/C=C\C/C=C\C/C=C\CCCC(=O)NCCCC(=O)O` [2a]: 60.3% and 39.7 ± 2.6%.

As to `CCCCC/C=C\C/C=C\C/C=C\C/C=C\CCCC(=O)NCCCCC(=O)O` [2b], at recombinant cPLA2, the inhibition at 10 µM was determined as 73.3% and the remaining activity at 10 µM is 26.7 ± 0.1%.

Turning to `CCCCC/C=C\C/C=C\C/C=C\C/C=C\CCCC(=O)NCCCCCC(=O)O` [2c], on recombinant cPLA2, the inhibition at 10 µM is 59.1% and the remaining activity at 10 µM is 40.9 ± 1.1%.

Regarding `CCCCC/C=C\C/C=C\C/C=C\C/C=C\CCCC(=O)Nc1cccc(C(=O)O)c1` [2d], on recombinant cPLA2, the inhibition at 10 µM was determined as 86.8% and the remaining activity at 10 µM was found to be 13.2 ± 1.2%. Take `CCCCC/C=C\C/C=C\C/C=C\C/C=C\CCCC(=O)NCc1ccc(C(=O)O)cc1` [2e]: on recombinant cPLA2, the inhibition at 10 µM turned out to be 74.2% and the remaining activity at 10 µM was 25.8 ± 0.1%.

Regarding `CCCCC/C=C\C/C=C\C/C=C\C/C=C\CCCC(=O)NCc1cccc(C(=O)O)c1` [2f], on recombinant cPLA2, the inhibition at 10 µM was determined as 64.4% and the remaining activity at 10 µM was 35.6 ± 2.1%. In the same order, the values of `CCC/C=C\C/C=C\C/C=C\C/C=C\CCCCC(=O)NCCCCC(=O)O` [2h] are 56.4% and 43.6 ± 0.2%. In the same order, the values of `CCC/C=C\C/C=C\C/C=C\C/C=C\CCCCC(=O)Nc1cccc(C(=O)O)c1` [2j] are 83.5% and 16.5 ± 1.2%.

Turning to `CCCCC/C=C\C/C=C\C/C=C\C/C=C\CCCCCC(=O)NCCCCC(=O)O` [2k], at recombinant cPLA2, the inhibition at 10 µM stood at 62.3% and the remaining activity at 10 µM stood at 37.7 ± 1.5%. The matching figures for `CCCCC/C=C\C/C=C\C/C=C\C/C=C\CCCC(=O)Nc1ccc(C(N)=O)cc1` [2l]: 32.6% and 67.4 ± 5.7%. For the molecule `CCCCC/C=C\C/C=C\C/C=C\C/C=C\CCCC(=O)Nc1cccc(C(N)=O)c1` [2m], at recombinant cPLA2, the inhibition at 10 µM turned out to be 42.5% and the remaining activity at 10 µM stood at 57.5 ± 1.4%. As for `CCCCC/C=C\C/C=C\C/C=C\C/C=C\CCCC(=O)Nc1ccc(C(=O)O)cc1` [2n], on recombinant cPLA2, the inhibition at 10 µM turned out to be 66.7% and the remaining activity at 10 µM worked out at 33.3 ± 0.9%. In the same order, the values of `CCCCC/C=C\C/C=C\C/C=C\C/C=C\CCCC(=O)Nc1ccccc1C(=O)O` [2o] are 34.5% and 65.5 ± 4%.

For `CCCCC/C=C\C/C=C\C/C=C\C/C=C\CCCC(=O)Nc1cccc(S(N)(=O)=O)c1` [2p, (5Z,8Z,11Z,14Z)-N-(3-sulfamoylphenyl)icosa-5,8,11,14-tetraenamide], at recombinant cPLA2, the inhibition at 10 µM was determined as 46.1% and the remaining activity at 10 µM was determined as 53.9 ± 2.7%. The matching figures for `CCCCC/C=C\C/C=C\C/C=C\C/C=C\CCCC(=O)NCCCCCC(=O)OC` [20c]: 15.2% and 84.8 ± 1%. For the molecule `Cn1c(=O)c2c(ncn2C)n(C)c1=O` [caffeine], in data set [1], the “order of Pe values of reference compounds” value (“order” below) was “propranolol > carbamazepine > quinidine > caffeine > dopamine”. `NC(=O)N1c2ccccc2C=Cc2ccccc21` [carbamazepine]: the “order” value in data set [1] is “propranolol > carbamazepine > quinidine > caffeine > dopamine”. On the same count and under the same terms, to `NCCc1ccc(O)c(O)c1` [dopamine] belongs “propranolol > carbamazepine > quinidine > caffeine > dopamine”; to `CC(C)NCC(O)COc1cccc2ccccc12` (centres unmarked) [propranolol], “propranolol > carbamazepine > quinidine > caffeine > dopamine”. On to `O=C1NC(=O)/C(=C/c2ccc(C(=O)NC[C@@H]3C[C@@H](SC(c4ccccc4)(c4ccccc4)c4ccccc4)CN3C(=O)c3ccccc3C(=O)c3ccc(F)cc3F)cc2)S1` [pyrrophenone], for which the “effective permeability (Pe)” value in data set [1] (porcine brain lipids, 16 h, 25 °C) is on record as 2.00 ± 0.05 × 10^−6 cm/s.

As to `C=C[C@H]1C[N@@]2CC[C@H]1C[C@@H]2[C@@H](O)c1ccnc2ccc(OC)cc12` [quinidine], in data set [1], the “order” value is reported as “propranolol > carbamazepine > quinidine > caffeine > dopamine”.

Broadly, the inhibition is the change of the read-out against control, counted positive when it falls. In general, remaining activity refers to what remains of the control signal, in per cent.
